Earlier results on 4 compounds are cited in patent publication US11369619B2, “Composition for curing migraine headaches” (priority 2014, dated 2022).

One data set has as its system male mice. To be noted: intravenous.
For a further data set, the system named is migraine. To be noted: topical administration.
For data set [1] the following is noted: taken orally, dosages of several hundred milligrams per day.

SMILES strings stand for the structures.

Regarding `C[C@@H]1C[C@H]2[C@@H]3CCC4=CC(=O)C=C[C@]4(C)[C@@]3(F)[C@@H](O)C[C@]2(C)[C@@]1(O)C(=O)COP(=O)(O)O` [Dexamethasone phosphate], the solubility in water entry was “practically insoluble in water”.

Regarding `C[C@@H]1C[C@H]2[C@@H]3CCC4=CC(=O)C=C[C@]4(C)[C@@]3(F)[C@@H](O)C[C@]2(C)[C@@]1(O)C(=O)COP(=O)(O)O` [dexamethasone sodium phosphate], the LD50 (in general, the dose expected to kill half of the subjects tested) with male mice is 794 mg/kg.

As to `CCN(CC)CC(=O)Nc1c(C)cccc1C` [lidocaine], the “patients in whom treatment was effective” value with migraine is “about 55%”.

Regarding `Cc1ncc(C[n+]2csc(CCO)c2C)c(N)n1` [thiamine], the adverse effects entry in data set [1] is given as “no reports of adverse effects”.
